In patent publication US20250186436A1 (4E Therapeutics, Inc., priority 2021, published 2025):
Where “and” joins values, the source holds several entries; their conditions need not be identical. Identical values can stand only once. Like-named read-outs stand apart in the source and are kept apart here.

Assay: PK study in male Sprague-Dawley rats dosed once per day for five days, PO 25 mg/kg, 0.5% HPMC (Example 8)
Assay type: in vivo
Conditions: 0.5% HPMC suspension
Procedure: Example 8. PK study of 4ET-03-053 in male Sprague-Dawley rats dosed once per day for five days (P0; 25 mg/kg; 0.5HPMC aqueous suspension)
Table 24 provides plasma and brain concentrations at 24 hr after the last dose of five daily PO doses of 4ET-03-053.

[1] = day five of daily PO 25 mg/kg, individual animals, 25 mg/kg
[2] = day five of daily PO 25 mg/kg, mean (n = 3)
[3] = male, Sprague-Dawley, rat, in vivo, po, 25 mg/kg, day five of daily PO 25 mg/kg, individual animals
[4] = male, Sprague-Dawley, rat, in vivo, po, 25 mg/kg, day five of daily PO 25 mg/kg, mean (n = 3)
[5] = male, Sprague-Dawley, rat, in vivo, po, 25 mg/kg, single PO 25 mg/kg dose, individual animals
[6] = male, Sprague-Dawley, rat, in vivo, po, 25 mg/kg, single PO 25 mg/kg dose, mean (n = 3)
[7] = single PO 25 mg/kg dose, individual animals, 25 mg/kg
[8] = single PO 25 mg/kg dose, mean (n = 3)

What does the source list for Cc1cc(Nc2cc(N)ncn2)c(=O)n2c1C(=O)NC21CCC2(CC2)CC1 [4ET-03-053, 6″-((6-Aminopyrimidin-4-yl)amino)-8″-methyl-2″H-dispiro[cyclopropane-1,1′-cyclohexane-4′,3″-imidazo[1,5-a]pyridine]-1″,5″-dione]?
AUClast [1]: 403.575 µg·h/mL and 371.995 µg·h/mL; Clast [1]: 5340 ng/mL and 6120 ng/mL; Cmax [1]: 26800 ng/mL and 29900 ng/mL; Cmax/D [1]: 1184 kg/kL and 1072 kg/kL and 1196 kg/kL; F [1]: 31.7% and 38.0% and 36.6%; MRTinf [1]: 13.2 h and 14.8 h; t1/2 [1]: 10.7 h and 9.67 h; AUCinf/D [2]: 18250 kg·h/kL; Cmax/D [2]: 1151 kg/kL; F [2]: 35.5%; concentration at 24 h (male, Sprague-Dawley, rat, in vivo, po, 25 mg/kg, after the last of five daily 25 mg/kg PO doses, at 24 hr, read-out: last measurable concentration): 5890 ng/mL; Cmax (male, Sprague-Dawley, rat, in vivo, po, 25 mg/kg, after the last of five daily 25 mg/kg PO doses, read-out: peak plasma concentration (Cmax)): 28800 ng/mL; half-life (male, Sprague-Dawley, rat, in vivo, po, 25 mg/kg, after the last of five daily 25 mg/kg PO doses, read-out: terminal half-life (t1/2) (converted)): 10.5 h; AUC(0-inf) (male, Sprague-Dawley, rat, in vivo, po, 25 mg/kg, after the last of five daily 25 mg/kg PO doses, read-out: total systemic exposure (AUCinf)): 456 µg·h/mL; AUC(0-t) [3]: 324 µg·h/mL; MRT inf [3]: 14.5 h; Tmax [3]: 1 h; AUC(0-inf) (male, Sprague-Dawley, rat, in vivo, po, 25 mg/kg, day five of daily PO 25 mg/kg, individual animals, read-out: AUCinf): 408 µg·h/mL; concentration at 24 h (male, Sprague-Dawley, rat, in vivo, po, 25 mg/kg, day five of daily PO 25 mg/kg, individual animals, read-out: Clast): 6220 ng/mL; Cmax (male, Sprague-Dawley, rat, in vivo, po, 25 mg/kg, day five of daily PO 25 mg/kg, individual animals, read-out: Cmax): 29600 ng/mL; half-life (male, Sprague-Dawley, rat, in vivo, po, 25 mg/kg, day five of daily PO 25 mg/kg, individual animals, read-out: t1/2 (converted)): 11 h; AUC(0-t) [4]: 367 µg·h/mL; MRT inf [4]: 14.1 h; Tmax [4]: 1 h; AUC(0-inf) (male, Sprague-Dawley, rat, in vivo, po, 25 mg/kg, day five of daily PO 25 mg/kg, mean (n = 3), read-out: AUCinf): 456 µg·h/mL; concentration at 24 h (male, Sprague-Dawley, rat, in vivo, po, 25 mg/kg, day five of daily PO 25 mg/kg, mean (n = 3), read-out: Clast): 5890 ng/mL; Cmax (male, Sprague-Dawley, rat, in vivo, po, 25 mg/kg, day five of daily PO 25 mg/kg, mean (n = 3), read-out: Cmax): 28800 ng/mL; half-life (male, Sprague-Dawley, rat, in vivo, po, 25 mg/kg, day five of daily PO 25 mg/kg, mean (n = 3), read-out: t1/2 (converted)): 10.5 h; AUC(0-t) [5]: 288 µg·h/mL; MRT inf [5]: 9.26 h; Tmax [5]: 1 h; AUC(0-inf) (male, Sprague-Dawley, rat, in vivo, po, 25 mg/kg, single PO 25 mg/kg dose, individual animals, read-out: AUCinf): 315 µg·h/mL; concentration at 24 h (male, Sprague-Dawley, rat, in vivo, po, 25 mg/kg, single PO 25 mg/kg dose, individual animals, read-out: Clast): 3130 ng/mL; Cmax (male, Sprague-Dawley, rat, in vivo, po, 25 mg/kg, single PO 25 mg/kg dose, individual animals, read-out: Cmax): 24400 ng/mL; AUC(0-t) [6]: 312 µg·h/mL; MRT inf [6]: 9.25 h; Tmax [6]: 1.33 h; AUC(0-inf) (male, Sprague-Dawley, rat, in vivo, po, 25 mg/kg, single PO 25 mg/kg dose, mean (n = 3), read-out: AUCinf): 341 µg·h/mL; Cmax (male, Sprague-Dawley, rat, in vivo, po, 25 mg/kg, single PO 25 mg/kg dose, mean (n = 3), read-out: Cmax): 25900 ng/mL; half-life (male, Sprague-Dawley, rat, in vivo, po, 25 mg/kg, single PO 25 mg/kg dose, mean (n = 3), read-out: t1/2 (converted)): 6.82 h; Cmax (male, Sprague-Dawley, rat, in vivo, po, 25 mg/kg, single PO 25 mg/kg, read-out: peak plasma concentration (Cmax)): 25900 ng/mL; half-life (male, Sprague-Dawley, rat, in vivo, po, 25 mg/kg, single PO 25 mg/kg, read-out: terminal half-life (t1/2) (converted)): 6.82 h; AUC(0-inf) (male, Sprague-Dawley, rat, in vivo, po, 25 mg/kg, single PO 25 mg/kg, read-out: total systemic exposure (AUCinf)): 341 µg·h/mL; bioavailability (male, rat, in vivo, after the last of five daily 25 mg/kg PO doses): 35.5%; AUCinf [7]: 363.793 µg·h/mL and 345.084 µg·h/mL; AUCinf/D [7]: 12599 kg·h/kL and 14552 kg·h/kL and 13803 kg·h/kL; AUClast [7]: 336.46 µg·h/mL and 313.078 µg·h/mL; Clast [7]: 2660 ng/mL and 2870 ng/mL; Cmax/D [7]: 976 kg/kL and 984 kg/kL and 1152 kg/kL; F [7]: 24.5% and 28.3% and 26.8%; MRTinf [7]: 8.89 h and 9.60 h; t1/2 [7]: 6.94 h and 6.50 h; AUCinf/D [8]: 13651 kg·h/kL; Cmax/D [8]: 1037 kg/kL
